According to US20240342348A1, “MEDICAL DEVICES INCLUDING THERAPEUTIC COATINGS FOR LOCAL DELIVERY OF A DIRECT ANTICOAGULANT” (Boston Scientific Scimed, Inc., priority 2023, published 2024):

Tests used:
[1] = Solubility of crystalline drug in water; type: physicochemical
[2] = crystalline drug; cited from earlier work
PTS = details: oral; cited from earlier work

- water solubility relative to paclitaxel and everolimus [1]: approximately 10 times
Compound: O=C(NC[C@H]1CN(c2ccc(N3CCOCC3=O)cc2)C(=O)O1)c1ccc(Cl)s1 [rivaroxaban, (S)-5-Chloro-N-((2-oxo-3-(4-(3-oxomorpholino)phenyl)oxazolidin-5-yl)methyl)thiophene-2-carboxamide]
- solubility in water [2]: about 3 μg drug per mL water
- risk of PTS (PTS): significantly reduces the risk of PTS
